Reference: patent publication US11566007B2, “Ras inhibitors” (Revolution Medicines, Inc., priority 2019, dated 2023)
“And” between values parts separate entries of the source, which are not always exact repeats. Identical values can stand only once. Like-named read-outs stand apart in the source and are kept apart here.

Tests used:
[1] = tested on: NCI-H358 cells (K-Ras G12C); assay: Potency assay: pERK in NCI-H358 cells; type: cell-based, human; settings: Homo sapiens, NCI-H358; H358 KRAS G12C; read-out: pERK EC50
How it was run: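 Compounds are dosed as ten 3-fold dilutions from a 10 mM DMSO stock, in duplicate, and left on cells for 4 h at 37 °C, 5% CO2. Phospho-ERK1/2 is then quantified by AlphaLISA SureFire Ultra or In-Cell Western, and IC50 is derived from a 4-parameter sigmoid against log concentration.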

NCI-H358 (K-Ras G12C) = assay: CellTiter-Glo cell viability assay, NCI-H358; type: cell-based, human; settings: NCI-H358, 5-day treatment
How it was run: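 Luminescent viability readout on day 5 after direct compound addition to plated cells; plates sat ~30 min at room temperature before reading. Values expressed as percent of mean DMSO signal, curves fit with a four-parameter logistic model.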

K-Ras G12C = K-Ras G12C (Homo sapiens (Human), UniProt P01116+P62937, G12C); assay: Ras-Raf (BRAF RBD) disruption / FRET / MOA assay, KRAS G12C; type: biochemical
How it was run: (§1)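 Compound-driven ternary complex of nucleotide-loaded Ras with cyclophilin A, disrupting BRAF RBD binding. 10-point 3-fold dilution from 30 μM final, 3 h at 25° C, then anti-His Eu-W1024 (10 nM) and anti-GST allophycocyanin (50 nM) for 1.5 h. IC50 from TR-FRET ratio decrease versus DMSO.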

K-Ras G13C = K-Ras G13C (Homo sapiens (Human), UniProt P01116+P62937, G13C); assay: Ras-Raf (BRAF RBD) disruption / FRET / MOA assay, KRAS G13C; type: biochemical
How it was run: as §1

KRAS G12S = KRAS G12S (Homo sapiens (Human), UniProt P01116+P62937, G12S); assay: Ras-Raf (BRAF RBD) disruption / FRET / MOA assay, KRAS G12S; type: biochemical; settings: Ras-Raf disruption/FRET/MOA assay; class symbols; read-out: KRAS G12S FRET data IC50
How it was run: as §1

KRAS G12D = KRAS G12D (Homo sapiens (Human), UniProt P01116+P62937, G12D); assay: Ras-Raf (BRAF RBD) disruption / FRET / MOA assay, KRAS G12D; type: biochemical; settings: Ras-Raf disruption/FRET/MOA assay; class symbols; read-out: KRAS G12D FRET data IC50
How it was run: as §1

KRAS G12V = KRAS G12V (Homo sapiens (Human), UniProt P01116+P62937, G12V); assay: Ras-Raf (BRAF RBD) disruption / FRET / MOA assay, KRAS G12V; type: biochemical; settings: read-out: IC50* KRAS G12V FRET data
How it was run: as §1

KRAS WT = KRAS WT (Homo sapiens (Human), UniProt P01116+P62937); assay: Ras-Raf (BRAF RBD) disruption / FRET / MOA assay, KRAS WT; type: biochemical; settings: read-out: IC50* KRAS WT FRET data
How it was run: as §1

KRAS G13D = KRAS G13D (Homo sapiens (Human), UniProt P01116+P62937, G13D); assay: Ras-Raf (BRAF RBD) disruption / FRET / MOA assay, KRAS G13D; type: biochemical; settings: read-out: IC50* KRAS G13D FRET data
How it was run: as §1

NRAS G12C = NRAS G12C (Homo sapiens (Human), UniProt P01111+P62937, G12C); assay: Ras-Raf (BRAF RBD) disruption / FRET / MOA assay, NRAS G12C; type: biochemical; settings: read-out: IC50* NRAS G12C FRET data
How it was run: as §1

[2] = Homo sapiens, NCI-H358, 120 h, class symbols, read-out: Additional H358 Cell Viability assay data (K-Ras G12C, IC50)
[3] = KRAS G12C, Ras-Raf disruption/FRET/MOA assay, read-out: IC50* KRAS G12C FRET data
[4] = KRAS G13C, Ras-Raf disruption/FRET/MOA assay, read-out: IC50* KRAS G13C FRET data
[5] = class symbols, read-out: Additional H358 Cell Viability assay data (K-Ras G12C, IC50)

Sequence of K-Ras G13C (P01116-2 other isoform, or with tags, fused parts or gaps G13C): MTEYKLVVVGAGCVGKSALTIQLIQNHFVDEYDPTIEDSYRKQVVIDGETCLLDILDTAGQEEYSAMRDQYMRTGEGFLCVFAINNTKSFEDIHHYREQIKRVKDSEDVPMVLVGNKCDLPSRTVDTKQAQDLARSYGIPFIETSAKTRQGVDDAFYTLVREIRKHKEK
Sequence of K-Ras G13C (P62937 whole entry): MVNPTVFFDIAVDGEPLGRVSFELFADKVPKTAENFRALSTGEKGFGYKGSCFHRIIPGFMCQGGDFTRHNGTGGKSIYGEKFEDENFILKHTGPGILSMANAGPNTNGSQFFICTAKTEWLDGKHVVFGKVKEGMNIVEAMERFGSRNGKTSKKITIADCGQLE
Sequence of KRAS G13D (P01116-2 other isoform, or with tags, fused parts or gaps G13D): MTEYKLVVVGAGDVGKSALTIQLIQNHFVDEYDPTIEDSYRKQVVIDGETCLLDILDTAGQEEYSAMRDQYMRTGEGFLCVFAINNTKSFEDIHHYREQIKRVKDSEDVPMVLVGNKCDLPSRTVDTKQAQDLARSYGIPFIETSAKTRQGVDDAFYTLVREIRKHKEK
Sequence of KRAS G13D (P62937 whole entry): as the sequence (P62937 whole entry) above
Sequence of K-Ras G12C (P01116-2 other isoform, or with tags, fused parts or gaps G12C): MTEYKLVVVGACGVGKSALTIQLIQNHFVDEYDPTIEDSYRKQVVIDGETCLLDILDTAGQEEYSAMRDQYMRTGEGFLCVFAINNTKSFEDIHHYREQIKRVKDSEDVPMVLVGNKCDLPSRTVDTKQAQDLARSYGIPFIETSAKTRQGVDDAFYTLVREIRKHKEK
Sequence of K-Ras G12C (P62937 whole entry): as the sequence (P62937 whole entry) above
Sequence of KRAS G12S (P01116-2 other isoform, or with tags, fused parts or gaps G12S): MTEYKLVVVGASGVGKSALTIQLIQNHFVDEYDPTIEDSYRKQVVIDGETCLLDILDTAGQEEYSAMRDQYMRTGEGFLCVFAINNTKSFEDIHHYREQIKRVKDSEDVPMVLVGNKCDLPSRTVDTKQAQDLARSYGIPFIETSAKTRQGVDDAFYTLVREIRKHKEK
Sequence of KRAS G12S (P62937 whole entry): as the sequence (P62937 whole entry) above
Sequence of KRAS G12V (P01116-2 other isoform, or with tags, fused parts or gaps G12V): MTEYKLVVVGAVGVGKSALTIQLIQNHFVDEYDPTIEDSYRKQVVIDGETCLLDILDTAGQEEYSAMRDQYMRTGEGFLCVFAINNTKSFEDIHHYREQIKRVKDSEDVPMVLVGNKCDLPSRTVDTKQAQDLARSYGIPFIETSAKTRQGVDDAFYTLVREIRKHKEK
Sequence of KRAS G12V (P62937 whole entry): as the sequence (P62937 whole entry) above
Sequence of NRAS G12C (P01111 whole entry G12C): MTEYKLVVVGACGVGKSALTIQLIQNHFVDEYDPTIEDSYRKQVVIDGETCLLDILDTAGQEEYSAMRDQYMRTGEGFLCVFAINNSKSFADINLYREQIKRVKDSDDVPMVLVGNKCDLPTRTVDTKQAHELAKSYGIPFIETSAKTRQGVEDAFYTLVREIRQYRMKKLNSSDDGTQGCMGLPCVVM
Sequence of NRAS G12C (P62937 whole entry): as the sequence (P62937 whole entry) above
Sequence of KRAS G12D (P01116-2 other isoform, or with tags, fused parts or gaps G12D): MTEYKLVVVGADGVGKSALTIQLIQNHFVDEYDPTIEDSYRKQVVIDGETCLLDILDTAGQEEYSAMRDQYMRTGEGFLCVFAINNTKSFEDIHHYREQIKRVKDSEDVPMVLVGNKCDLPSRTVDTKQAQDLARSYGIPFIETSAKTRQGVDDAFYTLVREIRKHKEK
Sequence of KRAS G12D (P62937 whole entry): as the sequence (P62937 whole entry) above
Sequence of KRAS WT (P01116-2 other isoform, or with tags, fused parts or gaps): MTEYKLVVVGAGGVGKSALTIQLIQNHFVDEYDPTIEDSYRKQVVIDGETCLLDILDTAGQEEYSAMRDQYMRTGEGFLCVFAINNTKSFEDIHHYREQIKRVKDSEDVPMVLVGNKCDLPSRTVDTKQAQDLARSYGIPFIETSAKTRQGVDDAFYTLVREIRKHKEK
Sequence of KRAS WT (P62937 whole entry): as the sequence (P62937 whole entry) above

SMILES	EC50 [1] [µM]	IC50 (NCI-H358 (K-Ras G12C); [2]) [µM]	IC50 (K-Ras G12C; [3])	IC50 (K-Ras G13C; [4])	IC50 (KRAS G12S)	IC50 (KRAS G12D)	IC50 (KRAS G12V)	IC50 (KRAS WT)	IC50 (KRAS G13D)	IC50 (NRAS G12C)	IC50 (NCI-H358 (K-Ras G12C); [5]) [µM]	IC50 (NCI-H358 (K-Ras G12C); Homo sapiens, NCI-H358, 120 h, read-out: H358 Cell Viability (K-Ras G12C) IC50) [µM]	IC50 (K-Ras G12C; with Cyclophilin A, BRAF RBD, read-out: FRET (K-Ras G12C) IC50) [µM]	IC50 (K-Ras G13C; with Cyclophilin A, BRAF RBD, read-out: FRET (K-Ras G13C) IC50) [µM]
C=CS(=O)(=O)N1CC[C@H](C(=O)N(C)[C@H](C(=O)N[C@H]2Cc3cccc(c3)-c3ccc4c(c3)c(c(-c3cccnc3[C@H](C)OC)n4CC)CC(C)(C)COC(=O)[C@@H]3CCCN(N3)C2=O)C(C)C)C1 (atropisomer, axis not shown) [Example A124]	< 5	0.01 to 0.1	0.01 to 0.1 µM and 1 to 10 µM	0.01 to 0.1 µM and 1 to 10 µM	1 to 10 µM and > 10 µM	> 10 µM	1 to 10 µM and > 10 µM	1 to 10 µM and > 10 µM	> 10 µM	0.01 to 0.1 µM and 1 to 10 µM				
CCn1c(-c2cccnc2[C@H](C)OC)c2c3cc(ccc31)-c1cc(O)cc(c1)C[C@H](NC(=O)[C@H](C(C)C)N(C)C(=O)[C@H]1CCN(C(=O)C#CCN(C)C)C1)C(=O)N1CCC[C@H](N1)C(=O)OCC(C)(C)C2 (atropisomer, axis not shown) [Example A131]	< 5	< 0.01	< 0.01 µM	0.01 to 0.1 µM and < 0.01 µM	0.1 to 1 µM and 1 to 10 µM	1 to 10 µM and 0.1 to 1 µM	0.1 to 1 µM and 1 to 10 µM	0.1 to 1 µM and 1 to 10 µM	0.1 to 1 µM and 1 to 10 µM	< 0.01 µM				
C=CS(=O)(=O)N1CC[C@H](C(=O)N(C)[C@H](C(=O)N[C@H]2Cc3cc(O)cc(c3)-c3ccc4c(c3)c(c(-c3cccnc3[C@H](C)OC)n4CC)CC(C)(C)COC(=O)[C@@H]3CCCN(N3)C2=O)C(C)C)C1 (atropisomer, axis not shown) [Example A132]	< 5	0.01 to 0.1	0.01 to 0.1 µM and < 0.01 µM	0.01 to 0.1 µM and < 0.01 µM	0.1 to 1 µM and 1 to 10 µM	1 to 10 µM and > 10 µM	1 to 10 µM and 0.01 to 0.1 µM	1 to 10 µM and 0.01 to 0.1 µM	0.1 to 1 µM and 1 to 10 µM	0.01 to 0.1 µM and < 0.01 µM				
CCn1c(-c2cccnc2COC)c2c3cc(ccc31)-c1cc(O)cc(c1)C[C@H](NC(=O)[C@H](C(C)C)N(C)C(=O)[C@H]1CCN(C(=O)C#CCOC)C1)C(=O)N1CCC[C@H](N1)C(=O)OCC(C)(C)C2 (atropisomer, axis not shown) [Example A135]	< 5	0.01 to 0.1	0.01 to 0.1 µM and < 0.01 µM	0.01 to 0.1 µM and 0.1 to 1 µM	0.1 to 1 µM and 1 to 10 µM	1 to 10 µM and > 10 µM	0.1 to 1 µM and 1 to 10 µM	1 to 10 µM and > 10 µM	1 to 10 µM and > 10 µM	0.01 to 0.1 µM and < 0.01 µM				
CCn1c(-c2cccnc2COC)c2c3cc(ccc31)-c1cccc(c1)C[C@H](NC(=O)[C@H](C(C)C)N(C)C(=O)[C@H]1CCN(C(=O)C#CCN(C)C)C1)C(=O)N1CCC[C@H](N1)C(=O)OCC(C)(C)C2 (atropisomer, axis not shown) [Example A138]	< 5	< 0.01	0.01 to 0.1 µM	0.1 to 1 µM	> 10 µM	1 to 10 µM	1 to 10 µM	1 to 10 µM	1 to 10 µM	0.01 to 0.1 µM				
CCn1c(-c2cncnc2C(C)C)c2c3cc(ccc31)-c1cc(O)cc(c1)C[C@H](NC(=O)[C@H](C(C)C)N(C)C(=O)[C@H]1CCN(C(=O)C#CCN(C)C)C1)C(=O)N1CCC[C@H](N1)C(=O)OCC(C)(C)C2 (atropisomer, axis not shown) [Example A155]	< 5	0.01 to 0.1	0.01 to 0.1 µM	0.01 to 0.1 µM and < 0.01 µM	1 to 10 µM and 0.01 to 0.1 µM	1 to 10 µM and 0.1 to 1 µM	0.1 to 1 µM and 0.01 to 0.1 µM	1 to 10 µM and 0.01 to 0.1 µM	1 to 10 µM and 0.01 to 0.1 µM	0.01 to 0.1 µM and < 0.01 µM	< 0.01			
CCn1c(-c2ccccc2CN(C)C)c2c3cc(ccc31)-c1cc(O)cc(c1)C[C@H](NC(=O)[C@H](C(C)C)N(C)C(=O)c1ncc(NC(=O)/C=C/CN(C)C)s1)C(=O)N1CCC[C@H](N1)C(=O)OCC(C)(C)C2 (atropisomer, axis not shown) [Example A163]	< 5	> 1	1 to 10 µM	0.01 to 0.1 µM	> 10 µM	1 to 10 µM	> 10 µM	1 to 10 µM	1 to 10 µM	1 to 10 µM				
CC#CC(=O)N1CC[C@H](C(=O)N(C)[C@H](C(=O)N[C@H]2Cc3cccc(c3)-c3ccc4c(c3)c(c(-c3cccnc3[C@H](C)OC)n4CC)CC(C)(C)COC(=O)[C@@H]3CCCN(N3)C2=O)C(C)C)C1 (atropisomer, axis not shown) [Example A173]	< 5	0.01 to 0.1	0.1 to 1 µM	> 10 µM	1 to 10 µM	> 10 µM	1 to 10 µM	> 10 µM	> 10 µM	0.1 to 1 µM				
CCn1c(-c2cncnc2[C@H](C)OC)c2c3cc(ccc31)-c1cc(O)cc(c1)C[C@H](NC(=O)[C@H](C(C)C)N(C)C(=O)[C@H]1CCN(C(=O)C#CCN3CCOCC3)C1)C(=O)N1CCC[C@H](N1)C(=O)OCC(C)(C)C2 (atropisomer, axis not shown) [Example A182]	< 5	0.01 to 0.1	0.01 to 0.1 µM and < 0.01 µM	0.01 to 0.1 µM and 1 to 10 µM	0.1 to 1 µM and 1 to 10 µM	1 to 10 µM and > 10 µM	0.1 to 1 µM and 1 to 10 µM	0.1 to 1 µM and 1 to 10 µM	0.1 to 1 µM and 1 to 10 µM	0.01 to 0.1 µM and < 0.01 µM	< 0.01			
CCn1c(-c2cccnc2[C@H](C)OC)c2c3cc(ccc31)-c1csc(n1)C[C@H](NC(=O)[C@H](C(C)C)N(C)C(=O)[C@H]1CCN(C(=O)C#CCN3CCOCC3)C1)C(=O)N1CCC[C@H](N1)C(=O)OCC(C)(C)C2 (atropisomer, axis not shown) [Example A186]	< 5		0.01 to 0.1 µM and 1 to 10 µM	> 10 µM and 1 to 10 µM	1 to 10 µM and > 10 µM	> 10 µM	1 to 10 µM and > 10 µM	> 10 µM	> 10 µM	0.01 to 0.1 µM and 1 to 10 µM		0.005	0.038	0.94
CO[C@@H](C)c1ncccc1-c1c2c3cc(ccc3n1C)-c1cccc(c1)C[C@H](NC(=O)[C@H](C(C)C)N(C)C(=O)[C@H]1CCN(C(=O)C#CCN3CCOCC3)C1)C(=O)N1CCC[C@H](N1)C(=O)OCC(C)(C)C2 (atropisomer, axis not shown) [Example A192]	< 5	0.1 to 1	0.1 to 1 µM and 1 to 10 µM	> 10 µM	> 10 µM	> 10 µM	> 10 µM	> 10 µM	> 10 µM	0.1 to 1 µM and 1 to 10 µM				
